Reference: publication PMC6121307, “Cloning and Functional Characterisation of the Duplicated RDL Subunits from the Pea Aphid, Acyrthosiphon pisum” (International Journal of Molecular Sciences, 2018)
Where two headings read alike, the source gives them in different places.

How the values were obtained:
[1] = target: T1, Apisum RDL1ad (Acyrthosiphon pisum, UniProt A0A385J708); experiment: Antagonistic actions of neonicotinoids on GABA-induced currents, two-electrode voltage-clamp in X. laevis oocytes; type: cell-based; settings: for activity at 100 µM: read-out: % of GABA Response with 100 μM neonicotinoid
T1 sequence (A0A385J708 33-567): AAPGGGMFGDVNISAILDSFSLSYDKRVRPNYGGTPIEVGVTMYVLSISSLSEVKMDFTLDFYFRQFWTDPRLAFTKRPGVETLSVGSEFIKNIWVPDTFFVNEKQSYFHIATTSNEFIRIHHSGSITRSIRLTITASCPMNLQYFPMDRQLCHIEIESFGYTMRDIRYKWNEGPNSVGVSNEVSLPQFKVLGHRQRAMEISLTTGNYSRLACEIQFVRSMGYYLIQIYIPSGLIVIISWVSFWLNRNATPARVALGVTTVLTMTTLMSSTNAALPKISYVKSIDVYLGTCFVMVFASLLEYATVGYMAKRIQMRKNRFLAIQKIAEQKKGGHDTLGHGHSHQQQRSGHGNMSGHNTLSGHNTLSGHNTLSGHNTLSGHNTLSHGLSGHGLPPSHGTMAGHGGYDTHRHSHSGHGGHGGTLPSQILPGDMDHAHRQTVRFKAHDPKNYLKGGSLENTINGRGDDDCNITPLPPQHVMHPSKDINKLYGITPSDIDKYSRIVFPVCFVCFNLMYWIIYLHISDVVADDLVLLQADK
Method: (§1) Functional studies of Apisum RDL1ad, Apisum RDL1bd and Apisum RDL2b variant 1 were performed using the X. laevis expression system and two-electrode voltage-clamp electrophysiology. Stage V and VI X. laevis oocytes were harvested and rinsed with Ca^2+ free solution (82 mM NaCl, 2 mM KCl, 2 mM MgCl2, 5 mM HEPES, pH 7.4), before defolliculating with 1 mg/mL type IA collagenase (Sigma, St. Louis, MO, USA) in Ca^2+ free solution. Defolliculated oocytes were injected with 2.3 ng (23 nL) Apisum Rdl plasmid DNA into the nucleus of the oocyte and stored in standard Barth’s solution (supplemented with 50 µg/mL neomycin and 10 µg/mL penicillin/streptomycin) at 17.5 °C.
(§2) Oocytes 1–7 days post-injection were placed in a recording chamber and clamped at −60 mV with 3 M KCl filled borosilicate glass electrodes (resistance 0.5–5 MΩ) and an Oocyte Clamp OC-725C amplifier (Warner Instruments, CT, USA). Responses were recorded on a flatbed chart recorder (Kipp & Zonen BD-11E, Delft, The Netherlands). Oocytes were perfused with standard oocyte saline (SOS; 100 mM NaCl, 2 mM KCl, 1.8 mM CaCl2, 1 mM MgCl2, 5 mM HEPES, pH 7.6) at a flow rate of 10 mL/min. Oocytes were selected for experiments if stable after three or more consecutive challenges of GABA at EC50 concentration. The GABA EC50 concentration was determined using GABA concentration response curves, which were generated by challenging oocytes to increasing concentrations of GABA in SOS, with 3 min between challenges. Curves were calculated by normalising the GABA current responses to maximal responses induced by GABA before and after application.
(§3) Insecticides were initially diluted in dimethylsulphoxide (DMSO), before diluting to final concentrations in SOS.
(§4) For measuring the antagonistic actions of neonicotinoids, oocytes were initially incubated with a perfusion of the neonicotinoid in SOS for 6 min, before challenging with a combination of neonicotinoid and either the respective EC50 GABA concentration or 1 mM GABA.

[2] = target: T2, Apisum RDL1bd (Acyrthosiphon pisum, UniProt A0A385J708); experiment: as above; type: cell-based; settings: for effect on responses induced by GABA: 100 μM neonicotinoid
T2 sequence (A0A385J708 33-567): T1 sequence (A0A385J708 33-567)
Method: as §1, §2, §3, §4

[3] = target: T1, Apisum RDL1ad; experiment: Fipronil inhibition of GABA EC50 induced currents, two-electrode voltage-clamp in X. laevis oocytes; type: cell-based; settings: GABA at EC50 (20 μM); 3 min pre-incubation; mean ± SEM
Method: as §1, §2
(§5) Insecticides were initially diluted in dimethylsulphoxide (DMSO), before diluting to final concentrations in SOS. […]
(§6) Data are presented as mean ± SEM of individual oocytes from three or more separate frogs. […] Statistical significance was determined as p < 0.05, performed using one-way ANOVA (Graphpad Software, CA, USA).

[4] = target: T3, Apisum RDL2b variant 1 (Acyrthosiphon pisum, UniProt A0A385J709); experiment: as above; type: cell-based; settings: GABA at EC50 (30 μM); 3 min pre-incubation; mean ± SEM
Method: as §1, §2, §5, §6

[5] = target: T2, Apisum RDL1bd; experiment: as above; type: cell-based; settings: GABA at EC50 (50 μM); 3 min pre-incubation; mean ± SEM
Method: as §1, §2, §5, §6

[6] = target: T1, Apisum RDL1ad; experiment: GABA concentration response, two-electrode voltage-clamp in X. laevis oocytes; type: cell-based
Method: as §1, §2
(§7) Data are presented as mean ± SEM of individual oocytes from three or more separate frogs. The concentration of GABA required to evoke 50% of the maximum response (EC50), the concentration of fipronil required to inhibit 50% of the maximal GABA response (IC50), and the Hill coefficient (nH) were determined by non-linear regression using Graphpad Prism 5 (Graphpad Software, CA, USA). Statistical significance was determined as p < 0.05, performed using one-way ANOVA (Graphpad Software, CA, USA).

[7] = target: T3, Apisum RDL2b variant 1; experiment: as above; type: cell-based
Method: as §1, §2, §7

[8] = target: T2, Apisum RDL1bd; experiment: as above; type: cell-based
Method: as §1, §2, §7

[9] = tested on: cultured honey bee Kenyon cells; set-up: method as in PMID 11872245; settings: cited from earlier work
[10] = tested on: An. gambiae RDL; set-up: method as in PMID 26296809; settings: 100 μM; expressed in Xenopus oocytes; cited from earlier work
[11] = tested on: A. mellifera RDL; set-up: method as in PMID 27288983; settings: 100 μM; expressed in Xenopus oocytes; cited from earlier work
[12] = tested on: Apisum RDL2b var 1; experiment: Antagonistic actions of neonicotinoids on GABA-induced currents, two-electrode voltage-clamp in X. laevis oocytes; type: cell-based, Acyrthosiphon pisum
Method: as §1
as §2, with “The GABA EC50 concentration was determined using GABA concentration response curves, which were generated by challenging oocytes to increasing concentrations of GABA in SOS, with 3 min between challenges.” left out, “application. […]” for “application.”

[13] = 100 μM neonicotinoid, GABA at 1 mM
[14] = 100 μM neonicotinoid, GABA at EC50 concentration
[15] = initial 250 μM GABA response, eggs clamped at −60 mV, mean ± SEM

## CN/C(=N\[N+](=O)[O-])NCc1cnc(Cl)s1 [CLO, clothianidin]
[1]; [13]
  effect on responses induced by GABA: no antagonistic actions
[1]; [14]
  effect on responses induced by GABA: no antagonistic actions
[1]
  activity at 100 µM: 100%
[2]; GABA at 1 mM
  effect on responses induced by GABA: no antagonistic actions
[2]; GABA at EC50 concentration
  effect on responses induced by GABA: no antagonistic actions
[2]; GABA at EC50
  % of GABA Response with 100 μM neonicotinoid: 100%

## N#Cc1nn(-c2c(Cl)cc(C(F)(F)F)cc2Cl)c(N)c1[S+]([O-])C(F)(F)F (stereo not shown) [Fipronil, fipronil]
[3]
  IC50: 0.64 ± 0.15 µM
[4]
  IC50: 0.72 ± 0.19 µM
[5]
  IC50: 0.18 ± 0.06 µM

## NCCCC(=O)O [GABA, γ-aminobutyric acid]
[6]; [15]
  Imax (maximum amplitude): 1.6 ± 0.6 μA
[6]; mean ± SEM of 4-5 oocytes
  EC50: 23 ± 1.7 µM
  GABA nH (hill coefficient): 1.6 ± 0.1
[7]; [15]
  Imax (maximum amplitude): 1.4 ± 1.5 μA
[7]; mean ± SEM of 4-5 oocytes
  EC50: 28 ± 5.4 µM
  GABA nH (hill coefficient): 1.0 ± 0.1
[8]; [15]
  Imax (maximum amplitude): 1.4 ± 1.3 μA
[8]; mean ± SEM of 4-5 oocytes
  EC50: 51 ± 9.2 µM
  GABA nH (hill coefficient): 2.0 ± 0.3

## O=[N+]([O-])NC1=NCCN1Cc1ccc(Cl)nc1 [IMI, imidacloprid]
[1]; [13]
  effect on responses induced by GABA: no detectable effect
[1]; [14]
  effect on responses induced by GABA: no detectable effect
[1]; GABA at EC50, 100 μM neonicotinoid
  activity at 100 µM: 100%
[2]; GABA at 1 mM
  effect on responses induced by GABA: no detectable effect
[2]; GABA at EC50 concentration
  effect on responses induced by GABA: no detectable effect
[2]; GABA at EC50
  % of GABA Response with 100 μM neonicotinoid: 100%
[9]
  effect on GABA-induced responses: reduce GABA-induced responses
[10]
  action on RDL: acted as an antagonist
[11]
  action on RDL: acted as an antagonist

## N#C/N=C1\SCCN1Cc1ccc(Cl)nc1 [THI, thiacloprid]
[2]; GABA at EC50, 100 µM
  % of GABA Response with 100 μM neonicotinoid: 55 ± 7%
[2]; GABA at EC50, listed as thiacloprid, 100 µM
  % of GABA Response with 100 μM neonicotinoid: 55%
[12]; GABA at EC50
  % of GABA Response with 100 μM neonicotinoid: 62 ± 2%
[12]; GABA at EC50, listed as thiacloprid
  % of GABA Response with 100 μM neonicotinoid: 62%
